Test results: paper PMC9006931, “Altered Response Pattern following AZD5582 Treatment of SIV-Infected, ART-Suppressed Rhesus Macaque Infants” (Journal of Virology, 2022)

What was measured:
[1] = Tolerability of repeated AZD5582 infusions in infant RMs; format: in vivo; conditions: 0.1 mg/kg i.v., 10 infusions
Procedure: The IAPi AZD5582 was reconstituted to 0.4 mg/mL in 10% Captisol within 1 week of administration as previously described ([17]). Monkeys assigned to the experimental intervention group received 10 administrations of 0.1 mg/kg AZD5582 by intravenous (i.v.) infusion with an inline filter for 30 minutes every week for 10 weeks.
EDTA-anticoagulated blood samples were collected regularly and used for a complete blood count, routine chemical analysis, and immunostaining, with plasma separated by centrifugation within 1 h of phlebotomy. PBMCs were prepared by density gradient centrifugation. Lymph node biopsy specimens were collected at indicated time points (Fig. 2A). Lymph nodes were ground using a 70-μm cell strainer. Cell suspensions were washed and immediately used for immunostaining or cryopreserved at −80°C until use.

[2] = test system: ncNF-κB pathway genes BIRC3 and NFkB2; assay: Ex vivo AZD5582 stimulation of sorted naive and memory CD4+ T cells, target gene RT-qPCR; format: cell-based, rhesus macaque; conditions: 1000 nM (n = 6) or 100 nM (n = 4) AZD5582, 24 h
Source text: We have previously shown that naive CD4^+ T cells are a major contributor to the viral reservoir in both SIV- and SHIV-infected infant macaques ([10], [11]). We were therefore interested to determine whether the dampened ART viremia that we observed in vivo was due to differential induction of ncNF-kB activation in naive and memory CD4^+ T cells following AZD5582 treatment. It is well documented that activation of naive CD4^+ T cells relies predominantly on cNF-κB and not the ncNF-κB pathway ([22]). […]
For cell sorting, peripheral CD4^+ T cells were first enriched by negative selection with the use of magnetic beads and column purification (nonhuman primate CD4^+ T cell isolation kit; Miltenyi). Enriched CD4^+ T cells were then stained with viability dye (Live/Dead Aqua) and previously determined volumes of the following fluorescently conjugated MAbs: CD3-AF700 (clone SP34-2), CD8-APC-Cy7 (clone SK1), CD95-PE-Cy5 (clone DX2), CD62L-PE (clone SK11), and CCR7-PE-Cy7 (clone 3D12) from BD Biosciences; CD4-BV650 from BioLegend. […]
Naïve and memory CD4^+ T cells were treated with 100 or 1000 nM AZD5582 for 24 h and then stored as a dry pellet until RNA extraction. […] Gene expression was normalized to TATA box binding protein (TBP) and the comparative threshold cycle (Ct) method (ΔΔCt) was used for relative quantification of gene expression. […]

[3] = parameters: method as in PMID 31969707; conditions: adult RMs (n = 7), matched doses, plasma; cited from earlier work

## CN[C@@H](C)C(=O)N[C@H](C(=O)N1CCC[C@H]1C(=O)N[C@H]1c2ccccc2C[C@H]1OCC#CC#CCO[C@@H]1Cc2ccccc2[C@@H]1NC(=O)[C@@H]1CCCN1C(=O)[C@@H](NC(=O)[C@H](C)NC)C1CCCCC1)C1CCCCC1 [AZD5582]
[1]
  Tolerability / clinical adverse events: well-tolerated and safe
[2]
  Fold induction of BIRC3 gene expression, naive versus memory CD4+ T cells: No significant difference
  Fold induction of NFkB2 gene expression, naive versus memory CD4+ T cells: No significant difference
[3]
  AUC0-2h: 512 ng·h/mL
  Cmax: 802 ng/mL
